Experimental data taken from ChEMBL document CHEMBL5665443, “Enzyme Inhibitor Single Concentration assay results for EUbOPEN Chemogenomics Library” (2024).

Legend:
Settings in all cases: Compound Concentration 10.0 uM, Hit No
[1] = biological target: Endonuclease 8-like 1 (Homo sapiens) (UniProt Q96FI4);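 also: fluorescence at 594 nm from quenched duplex DNA oligonucleotides released by NEIL1 cleavage and strand separation, reported as reduction of this enzyme activity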
Description: Inhibition of NEIL1 by quantifying inhibition of NEIL1-mediated cleavage and dissociation of quenched duplex DNA oligonucleotides, measured as fluorescence at 594 nm.

[2] = biological target: N-glycosylase/DNA lyase (Homo sapiens) (UniProt O15527);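 also: OGG1 cleavage of a quenched duplex DNA oligonucleotide, coupled to APE1 for strand incision, read as fluorescence at 594 nm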
Description: Inhibition of OGG1 by quantifying inhibition of OGG1-mediated cleavage and dissociation of quenched duplex DNA oligonucleotides, measured as fluorescence at 594 nm. To generate a functional strand incision and increase turn-over this assay is coupled to APE1.

[3] = biological target: Uracil-DNA glycosylase (Homo sapiens) (UniProt P13051);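 also: UNG excision on a quenched double-stranded DNA oligo probe, with APE1 added for strand incision and turnover, read as fluorescence at 594 nm as strands separate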
Description: Inhibition of UNG by quantifying inhibition of UNG-mediated cleavage and dissociation of quenched duplex DNA oligonucleotides, measured as fluorescence at 594 nm. To generate a functional strand incision and increase turn-over this assay is coupled to APE1.

[4] = biological target: T1, Single-strand selective monofunctional uracil DNA glycosylase (Homo sapiens) (UniProt Q53HV7);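 also: enzymatic SMUG1 assay coupled with APE1, reading fluorescence at 594 nm released when a quenched double-stranded DNA oligonucleotide substrate is cleaved and separated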
T1 sequence (whole entry): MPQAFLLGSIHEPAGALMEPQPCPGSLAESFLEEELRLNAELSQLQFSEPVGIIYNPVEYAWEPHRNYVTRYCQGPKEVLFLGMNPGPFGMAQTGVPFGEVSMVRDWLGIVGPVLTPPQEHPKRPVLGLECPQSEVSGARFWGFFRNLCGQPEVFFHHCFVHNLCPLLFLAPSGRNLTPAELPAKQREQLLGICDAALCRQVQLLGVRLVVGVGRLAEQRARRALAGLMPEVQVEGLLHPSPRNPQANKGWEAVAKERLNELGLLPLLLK
Description: Inhibition of SMUG1 by quantifying inhibition of SMUG1-mediated cleavage and dissociation of quenched duplex DNA oligonucleotides, measured as fluorescence at 594 nm. To generate a functional strand incision and increase turn-over this assay is coupled to APE1.

[5] = biological target: T2, Endonuclease 8-like 2 (Homo sapiens) (UniProt Q969S2);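 also: fluorescence at 594 nm reports NEIL2 cutting and release of a quenched double-stranded DNA oligo substrate, reduced signal read as inhibition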
T2 sequence (whole entry): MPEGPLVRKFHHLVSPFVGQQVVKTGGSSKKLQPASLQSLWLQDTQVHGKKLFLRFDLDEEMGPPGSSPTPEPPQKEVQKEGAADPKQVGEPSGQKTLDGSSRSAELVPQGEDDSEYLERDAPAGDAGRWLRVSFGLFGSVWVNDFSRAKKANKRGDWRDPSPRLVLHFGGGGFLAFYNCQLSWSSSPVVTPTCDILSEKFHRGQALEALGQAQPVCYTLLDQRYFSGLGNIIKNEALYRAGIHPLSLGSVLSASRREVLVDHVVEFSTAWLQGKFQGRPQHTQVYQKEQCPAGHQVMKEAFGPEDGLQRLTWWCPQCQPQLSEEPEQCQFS
Description: Inhibition of NEIL2 by quantifying inhibition of NEIL2-mediated cleavage and dissociation of quenched duplex DNA oligonucleotides, measured as fluorescence at 594 nm.

[6] = biological target: T3, Adenine DNA glycosylase (Homo sapiens) (UniProt Q9UIF7);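 also: human MUTYH activity read as 594 nm fluorescence from cleavage and release of a quenched DNA duplex, coupled with APE1 for strand incision, lower signal meaning inhibition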
T3 sequence (whole entry): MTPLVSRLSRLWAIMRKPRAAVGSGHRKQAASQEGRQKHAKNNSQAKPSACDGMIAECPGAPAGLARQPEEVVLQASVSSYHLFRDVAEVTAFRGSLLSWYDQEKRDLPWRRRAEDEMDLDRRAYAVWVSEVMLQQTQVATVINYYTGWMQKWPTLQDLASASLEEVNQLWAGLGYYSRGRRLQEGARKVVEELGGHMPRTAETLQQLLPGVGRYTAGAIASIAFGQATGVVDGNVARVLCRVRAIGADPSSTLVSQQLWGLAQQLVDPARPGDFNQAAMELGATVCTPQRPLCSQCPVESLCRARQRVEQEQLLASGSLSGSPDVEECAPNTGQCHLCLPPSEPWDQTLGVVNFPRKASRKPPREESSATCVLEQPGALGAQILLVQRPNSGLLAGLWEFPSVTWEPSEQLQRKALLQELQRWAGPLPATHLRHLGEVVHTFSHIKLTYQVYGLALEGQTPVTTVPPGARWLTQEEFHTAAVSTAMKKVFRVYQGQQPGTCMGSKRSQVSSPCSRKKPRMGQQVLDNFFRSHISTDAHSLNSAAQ
Description: Inhibition of MUTYH by quantifying inhibition of MUTYH-mediated cleavage and dissociation of quenched duplex DNA oligonucleotides, measured as fluorescence at 594 nm. To generate a functional strand incision and increase turn-over this assay is coupled to APE1.

[7] = biological target: DNA-3-methyladenine glycosylase (Homo sapiens) (UniProt P29372);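 also: enzyme assay where MPG cuts a quenched duplex DNA oligonucleotide probe, paired with APE1 for strand incision and turnover, read as fluorescence at 594 nm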
Description: Inhibition of MPG by quantifying inhibition of MPG-mediated cleavage and dissociation of quenched duplex DNA oligonucleotides, measured as fluorescence at 594 nm. To generate a functional strand incision and increase turn-over this assay is coupled to APE1.

[8] = biological target: T4, Endonuclease III-like protein 1 (Homo sapiens) (UniProt P78549);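 also: enzyme assay tracking NTHL1 cutting and release of a quenched double-stranded DNA oligo substrate, read as fluorescence at 594 nm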
T4 sequence (whole entry): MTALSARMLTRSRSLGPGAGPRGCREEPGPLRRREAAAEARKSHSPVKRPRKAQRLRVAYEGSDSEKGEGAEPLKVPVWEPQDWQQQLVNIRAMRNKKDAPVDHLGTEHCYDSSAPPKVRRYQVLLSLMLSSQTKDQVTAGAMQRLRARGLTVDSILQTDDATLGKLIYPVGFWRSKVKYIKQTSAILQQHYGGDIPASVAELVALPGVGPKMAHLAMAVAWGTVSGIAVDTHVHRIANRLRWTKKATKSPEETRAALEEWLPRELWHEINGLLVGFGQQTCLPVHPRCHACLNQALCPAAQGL
Description: Inhibition of NTHL1 by quantifying inhibition of NTHL1-mediated cleavage and dissociation of quenched duplex DNA oligonucleotides, measured as fluorescence at 594 nm.

[9] = biological target: G/T mismatch-specific thymine DNA glycosylase (Homo sapiens) (UniProt Q13569);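 also: human TDG cleavage of quenched duplex DNA oligonucleotides coupled to APE1, strand release read as fluorescence at 594 nm, inhibition of TDG activity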
Description: Inhibition of TDG by quantifying inhibition of TDG-mediated cleavage and dissociation of quenched duplex DNA oligonucleotides, measured as fluorescence at 594 nm. To generate a functional strand incision and increase turn-over this assay is coupled to APE1.

[10] = biological target: Methyl-CpG-binding domain protein 4 (Homo sapiens) (UniProt O95243);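 also: MBD4 activity read as fluorescence at 594 nm from cleavage and release of a quenched duplex DNA oligonucleotide, with APE1 coupled to incise the strand and raise turnover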
Chain of Methyl-CpG-binding domain protein 4 (Homo sapiens) (O95243 whole entry, the tested form may be a part): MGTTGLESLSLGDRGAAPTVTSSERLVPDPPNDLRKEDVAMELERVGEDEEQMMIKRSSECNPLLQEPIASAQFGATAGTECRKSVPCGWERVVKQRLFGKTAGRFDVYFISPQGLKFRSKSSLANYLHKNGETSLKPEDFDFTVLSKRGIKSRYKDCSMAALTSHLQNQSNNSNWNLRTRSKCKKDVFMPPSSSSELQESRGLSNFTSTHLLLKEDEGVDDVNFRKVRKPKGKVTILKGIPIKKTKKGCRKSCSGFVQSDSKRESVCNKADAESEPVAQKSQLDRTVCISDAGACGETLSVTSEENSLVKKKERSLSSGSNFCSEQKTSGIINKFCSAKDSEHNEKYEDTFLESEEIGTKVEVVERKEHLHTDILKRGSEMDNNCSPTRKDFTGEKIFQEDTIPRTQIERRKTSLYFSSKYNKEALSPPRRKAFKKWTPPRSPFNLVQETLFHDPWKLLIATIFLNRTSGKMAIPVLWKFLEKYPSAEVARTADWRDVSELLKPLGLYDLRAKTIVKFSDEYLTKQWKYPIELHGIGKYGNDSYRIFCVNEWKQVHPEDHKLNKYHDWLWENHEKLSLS
Description: Inhibition of MBD4 by quantifying inhibition of MBD4-mediated cleavage and dissociation of quenched duplex DNA oligonucleotides, measured as fluorescence at 594 nm. To generate a functional strand incision and increase turn-over this assay is coupled to APE1.

Chain of DNA-3-methyladenine glycosylase (Homo sapiens) (P29372 whole entry): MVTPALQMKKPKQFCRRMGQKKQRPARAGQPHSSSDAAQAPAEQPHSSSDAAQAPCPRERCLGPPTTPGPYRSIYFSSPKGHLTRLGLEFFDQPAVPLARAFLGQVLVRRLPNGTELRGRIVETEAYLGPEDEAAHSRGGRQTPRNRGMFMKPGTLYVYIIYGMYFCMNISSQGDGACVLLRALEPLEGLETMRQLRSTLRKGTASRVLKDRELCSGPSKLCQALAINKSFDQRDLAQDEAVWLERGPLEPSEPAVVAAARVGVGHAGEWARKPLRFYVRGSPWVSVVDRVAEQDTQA
Chain of N-glycosylase/DNA lyase (Homo sapiens) (O15527 whole entry): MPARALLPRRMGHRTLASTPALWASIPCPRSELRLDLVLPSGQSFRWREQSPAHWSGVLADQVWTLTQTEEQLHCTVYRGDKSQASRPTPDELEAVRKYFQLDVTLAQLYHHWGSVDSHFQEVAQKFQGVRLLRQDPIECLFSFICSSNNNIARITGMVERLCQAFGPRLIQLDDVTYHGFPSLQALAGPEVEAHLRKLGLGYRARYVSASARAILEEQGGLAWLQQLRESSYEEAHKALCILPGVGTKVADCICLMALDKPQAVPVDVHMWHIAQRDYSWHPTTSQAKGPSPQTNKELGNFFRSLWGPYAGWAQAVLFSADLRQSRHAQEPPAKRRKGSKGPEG
Chain of Uracil-DNA glycosylase (Homo sapiens) (P13051 whole entry): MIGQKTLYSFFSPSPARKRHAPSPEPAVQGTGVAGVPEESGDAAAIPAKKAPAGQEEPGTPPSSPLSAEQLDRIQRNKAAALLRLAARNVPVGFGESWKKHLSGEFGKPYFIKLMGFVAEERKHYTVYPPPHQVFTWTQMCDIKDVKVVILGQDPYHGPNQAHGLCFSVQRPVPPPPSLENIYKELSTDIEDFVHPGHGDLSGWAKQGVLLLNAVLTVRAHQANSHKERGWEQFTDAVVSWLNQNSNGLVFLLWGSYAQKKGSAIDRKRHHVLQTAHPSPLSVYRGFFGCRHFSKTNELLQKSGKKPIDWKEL
Chain of G/T mismatch-specific thymine DNA glycosylase (Homo sapiens) (Q13569 whole entry, the tested form may be a part): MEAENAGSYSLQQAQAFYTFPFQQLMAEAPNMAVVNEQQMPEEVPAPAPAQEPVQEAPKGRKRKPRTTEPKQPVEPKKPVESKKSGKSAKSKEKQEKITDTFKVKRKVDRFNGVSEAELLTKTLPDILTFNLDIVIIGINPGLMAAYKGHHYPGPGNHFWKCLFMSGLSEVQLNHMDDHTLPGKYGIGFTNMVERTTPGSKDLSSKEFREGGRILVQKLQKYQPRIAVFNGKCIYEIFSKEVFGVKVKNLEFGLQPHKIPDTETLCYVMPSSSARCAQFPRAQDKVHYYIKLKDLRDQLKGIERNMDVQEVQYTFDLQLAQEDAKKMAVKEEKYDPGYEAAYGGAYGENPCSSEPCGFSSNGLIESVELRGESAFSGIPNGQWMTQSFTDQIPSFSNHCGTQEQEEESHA
Chain of Endonuclease 8-like 1 (Homo sapiens) (Q96FI4 whole entry): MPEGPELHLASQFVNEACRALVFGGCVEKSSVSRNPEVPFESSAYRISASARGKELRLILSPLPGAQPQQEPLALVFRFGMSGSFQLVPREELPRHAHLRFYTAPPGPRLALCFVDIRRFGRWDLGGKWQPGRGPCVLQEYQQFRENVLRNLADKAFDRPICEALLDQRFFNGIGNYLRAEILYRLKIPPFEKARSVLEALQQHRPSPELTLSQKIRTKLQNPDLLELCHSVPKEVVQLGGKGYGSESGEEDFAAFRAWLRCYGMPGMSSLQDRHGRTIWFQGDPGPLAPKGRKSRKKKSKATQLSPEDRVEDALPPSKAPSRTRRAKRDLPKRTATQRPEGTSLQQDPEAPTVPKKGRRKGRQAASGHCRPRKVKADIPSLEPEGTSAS

Compound | inhibition [1] [%] | inhibition [2] [%] | inhibition [3] [%] | inhibition [4] [%] | inhibition [5] [%] | inhibition [6] [%] | inhibition [7] [%] | inhibition [8] [%] | inhibition [9] [%] | inhibition [10] [%]
Cc1ccc(S(=O)(=O)Nc2ccc(-n3nc(C(F)(F)F)cc3C(F)(F)F)cc2)cc1 | 3.57 | 21.7 | -1.93 | 19.1 | 5 | -4.85 | 20 | 16.2 | – | –
CCCCCCCC/C=C\CCCCCCCC(N)=O | 12.4 | 4.44 | -8.52 | -2.07 | 2.51 | 15.9 | 17.3 | 2.66 | 12.1 | –
O=C1c2ccccc2C(Cc2ccncc2)(Cc2ccncc2)c2ccccc21 | 6.83 | – | – | – | -2.64 | 8.2 | 12.1 | 20.4 | 21.3 | 23.6
COC[C@@H](c1ccc(C(F)(F)F)cc1)N1CCN(C2(C)CCN(C(=O)c3c(C)ncnc3C)CC2)C[C@@H]1C | -4.58 | – | -3.97 | – | – | 7.5 | -7.67 | 16.2 | -1.76 | 11.1
CN1CCC(C(=O)c2cccc(NC(=O)c3c(F)cc(F)cc3F)n2)CC1 | 4.54 | -2.69 | -8.11 | -9.63 | -1.73 | 9.62 | 2.3 | -6.14 | 19.6 | –
CC(C)NCC(O)c1ccc(N)c(C#N)c1 (stereo not drawn) | -4.21 | -2.67 | – | -9.04 | -8.72 | 4.24 | 0.373 | 12.9 | -4.14 | –
O=C(Nc1cccc(C(F)(F)F)c1)c1cc(Cl)ccc1O | -4.58 | -6.43 | -2.86 | 0.608 | -5.45 | 0.595 | 23.5 | 5.52 | 4.24 | –
O=C(O)[C@H]1O[C@H](OP(=O)(O)OP(=O)(O)OC[C@H]2O[C@@H](n3ccc(=O)[nH]c3=O)[C@H](O)[C@@H]2O)[C@H](O)[C@@H](O)[C@@H]1O | – | – | – | – | -7.23 | 14.9 | 24.7 | 15.4 | 15.8 | 18.3
C/N=C(/NC#N)NCCSCc1csc(NC(=N)N)n1 | -6.13 | -8.12 | – | -3.81 | – | -6.76 | -5.07 | -9.8 | 1.2 | –
C[C@H](C[C@H](N)C(=O)O)C(=O)O | -6.51 | – | – | – | 0.414 | 17 | 14.2 | -6.04 | 0.112 | 13.5
CN(C(=O)/C=C/c1ccoc1)[C@@H]1CC[C@@]2(O)[C@H]3Cc4ccc(O)c5c4[C@@]2(CCN3CC2CC2)[C@H]1O5 | 14.2 | -1.76 | -6.84 | -7.79 | 1.76 | 8.72 | 5.81 | 1.92 | 13.5 | –
CC1(C)N=C(C2CCCCC2)c2ccc(C#N)cc2N(c2ccc(NCCNC3CCOCC3)cc2)C1=O | 4.75 | – | – | – | -3.41 | 1.14 | 7.31 | 19.6 | 5.19 | 10.6
CC[C@H](NC(=O)c1c(C)c(-c2ccccc2)nc2ccccc12)c1ccccc1 | -0.204 | -1.61 | -6.75 | -0.0333 | -1.98 | 0.0213 | 4.04 | 9.25 | -2.42 | –
CC(C)c1ccc(CC(=O)N[C@H](C)c2ccc(OCC(F)(F)F)cn2)cc1 | 3.42 | -4.46 | -0.689 | 4.45 | -3.66 | -5.06 | 9.35 | 8 | -9.7 | –
C[C@@H](OC[C@@]1(c2ccccc2)CC[C@]2(CCC(=O)N2)CN1)c1cc(C(F)(F)F)cc(C(F)(F)F)c1 | -1.98 | -0.784 | -7.13 | -1.58 | 6.75 | 10.9 | -7.57 | -6.14 | 9.1 | –
c1ccc2c(c1)CCC[C@H]2Nc1nc2ccccc2[nH]1 | 4.46 | 1.89 | -4.72 | -5.61 | 3.47 | 2.96 | 9.2 | 4.7 | 8.8 | –
NCCc1ccc(O)c(O)c1 | 2.32 | -1.68 | -7.47 | -4.83 | -3.23 | 17.9 | -0.746 | 21 | 8.49 | –
COC(c1ccccc1)(c1ccccc1)[C@H](Oc1nc(C)cc(C)n1)C(=O)O | 9.14 | 1.14 | -5.94 | -3.28 | 10.8 | 23.3 | 4.85 | 6.32 | 14.5 | –
H-RPPGFSPFR-OH | 4.01 | -0.678 | 2.31 | 5.92 | -1.37 | 29 | 15.2 | 1.39 | 26.9 | –
CC[S+]([O-])c1nc(-c2cccc(OCc3ccccc3)c2)cc(C(F)(F)F)n1 (stereo not drawn) | 5.43 | 6.41 | -7.73 | 4.67 | 10.8 | -4.2 | -6.11 | -3.94 | 4.54 | –
CC(C)(C(=O)O)c1ccc(C(O)CCCN2CCC(C(O)(c3ccccc3)c3ccccc3)CC2)cc1 (stereo not drawn) | -7.32 | -9.14 | -8.82 | -3.57 | 8 | -0.107 | -4.6 | 2.66 | 8.16 | –
O=C(Nc1cc(C(F)(F)F)cc(C(F)(F)F)c1)c1cc(Cl)ccc1O | 1.2 | 28.6 | -1.16 | 4.73 | -3.41 | -9.19 | 9.82 | 6.35 | – | –
CC1(C)Cc2c(CN3CCC4(CC3)CCN(C(=O)c3ccc(N)cn3)CC4)cccc2O1 | 7.27 | – | – | – | -6.46 | 2.36 | 8.62 | 8.82 | -2.08 | 21.4
CNc1nc(Nc2ccccc2)nc(OC(C(F)(F)F)C(F)(F)F)n1 | 2.83 | -3.77 | 1.86 | 2.08 | 1.69 | -4.15 | -9.6 | 19.6 | 4.54 | –
